The results in this text go back to patent publication US20070110720A1, “Vectors, mutant viruses and methods for generating mutant viruses” (priority 2003, published 2007).

“Also recorded” adds a separate entry of the source.

For one data set, the system named is confluent 3T6 cells. The format is cell-based. The conditions noted are these: 50 μM CB1954 alone.
Another data set has as its system A2780 xenograft. Kind of data set: Scheduling experiment: tumour volume after virus and CB1954. The format is in vivo, athymic nude mice. As for the experimental part: Mice were randomized into treatment groups (treatment regimes shown in Table 2) of 3 animals when tumour diameters were approximately 5 mm (tumour volume […]).
(§1) The treatment groups were administered with a single direct intratumoural injection of the virus and dose determined for that group. The virus was diluted PBS+10% serum. ‘No virus’ control groups received an intratumoural injection of 100 μl of PBS+10% serum. This day was designated as Experimental Day 0.
(§2) Injections of CB1954 were given to the appropriate groups at days 2, 10 and 15. A dose of 80 mg/kg—the equivalent of approx. 2 mg per mouse—was given. The powdered form of the CB1954 drug (from Sigma) was dissolved in acetone to 10% of the final volume (10 μl per 2 mg). The volume was then made up to 2 mg CB1954 in 100 μl using peanut oil. A syringe was used to mix the drug as peanut oil is thick and viscous. The drug was made up fresh every time.
(§3) The appropriate groups were then injected intra-peritoneal with this solution. Control groups which were not receiving drug were injected intra-peritoneal with a 100 μl solution of 10% acetone in peanut oil.

Another data set relates to A2780 xenografts. The data set is described as follows: Naked DNA experiment: CMV-ntr plasmid and CB1954 in xenograft tumours. The format is in vivo, mice. The conditions noted are these: single agent: CMV-ntr 0.2 mg DNA intratumoural Day 0, or CB1954 80 mg/kg intra-peritoneal Day 2. The protocol:
In order to check the alterations in tumour growth are due to the virus itself and not a result of the CMV-ntr plasmid DNA that had been introduced to the HSV 1716 virus, an experiment was set up looking at the effect of the CMV-ntr plasmid DNA alone and in combination with the prodrug CB1954.
Mice were randomised into treatment groups of 6 animals each when tumour diameters are approximately 5 mm (this is Day 0). […] Two groups of mice were administered CMV-ntr plasmid by direct intratumoural injection at a dose of 0.2 mg DNA per injection. One of these groups was then administered with a single dose of 80 mg/kg of CB1954 on Day 2 by intra-peritoneal injection. […] Animals were weighed daily (FIG. 23) and daily caliper measurements performed until the tumour sizes were in the region of 20 mm by 20 mm. Tumour volumes were estimated from these measurements (volume=[…]) (FIG. 24). In addition any toxicity from these administered agents was determined.

Data set [1] is described as follows: Scheduling experiment: tolerability of injections. The format is in vivo, athymic nude mice. The conditions noted are these: 80 mg/kg intra-peritoneal in 10% acetone/peanut oil. The protocol:
as §1
Some tumours bleed slightly after injection but not to a great degree. […] In all the tumours that bleed slightly, the following day the healing process had begun and within 3-5 days there was little evidence of any puncture wound on any tumour.
as §2, §3

The next data set deals with C8161 cells. The format is cell-based, human. The settings on record: 50 μM CB1954 alone.

Take `NC(=O)c1cc(N2CC2)c([N+](=O)[O-])cc1[N+](=O)[O-]` [CB1954]: the cell death result in the data set with confluent 3T6 cells is on record as “no effect; also recorded: does not result in any significant cell death”; in the data set on C8161 cells, “no effect”. Also, the “effect on tumour growth” value in the data set with A2780 xenograft (CB1954 alone, 80 mg/kg intra-peritoneal, no virus (groups 5, 6, 7, 13)) is “little effect on tumour growth”. Also, in the data set on A2780 xenograft (CB1954 given Day 2 post viral injection versus Day 10), the “tumour growth delay by timing of prodrug” value is on record as “tumour growth was not delayed as much as if the drug was given at a later date”. In the data set with A2780 xenografts, the “anti-tumour activity as determined by tumour regression” value is “neither the CMV-ntr alone, CB1954 alone or the combination of both CMV-ntr and CB1954, has any anti-tumour activity”. Further, the “body weight after intra-peritoneal injection” value in data set [1] is listed as “did not lose any body weight”. Further, in data set [1], the “swelling or irritation at the site of injection” value is reported as “No swelling or irritation”.
